The values below come from patent publication US7671065B2, “Pyridine derivatives as potassium ion channel openers” (Janssen Pharmaceutica N.V., priority 2005, dated 2010).

The structures appear in SMILES notation.

This assay deals with T1, KATP channels (Homo sapiens, UniProt O60706+Q14654).
T1 construct: TE671 human medulloblastoma cells were obtained from ATCC; host or cells: TE671 human medulloblastoma cells
T1 sequence (Q14654 whole entry): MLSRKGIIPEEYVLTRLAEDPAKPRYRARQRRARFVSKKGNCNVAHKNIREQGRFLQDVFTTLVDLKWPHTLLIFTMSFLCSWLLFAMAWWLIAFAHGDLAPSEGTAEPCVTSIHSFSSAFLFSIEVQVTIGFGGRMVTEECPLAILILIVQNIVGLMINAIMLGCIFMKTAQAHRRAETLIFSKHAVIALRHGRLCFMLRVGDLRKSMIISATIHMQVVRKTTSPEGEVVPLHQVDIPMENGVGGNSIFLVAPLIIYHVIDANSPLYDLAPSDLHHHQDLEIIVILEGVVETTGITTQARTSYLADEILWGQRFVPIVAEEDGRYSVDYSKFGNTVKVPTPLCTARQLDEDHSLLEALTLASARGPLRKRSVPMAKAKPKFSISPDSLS
T1 sequence (O60706 1-1549 isoform O60706-2): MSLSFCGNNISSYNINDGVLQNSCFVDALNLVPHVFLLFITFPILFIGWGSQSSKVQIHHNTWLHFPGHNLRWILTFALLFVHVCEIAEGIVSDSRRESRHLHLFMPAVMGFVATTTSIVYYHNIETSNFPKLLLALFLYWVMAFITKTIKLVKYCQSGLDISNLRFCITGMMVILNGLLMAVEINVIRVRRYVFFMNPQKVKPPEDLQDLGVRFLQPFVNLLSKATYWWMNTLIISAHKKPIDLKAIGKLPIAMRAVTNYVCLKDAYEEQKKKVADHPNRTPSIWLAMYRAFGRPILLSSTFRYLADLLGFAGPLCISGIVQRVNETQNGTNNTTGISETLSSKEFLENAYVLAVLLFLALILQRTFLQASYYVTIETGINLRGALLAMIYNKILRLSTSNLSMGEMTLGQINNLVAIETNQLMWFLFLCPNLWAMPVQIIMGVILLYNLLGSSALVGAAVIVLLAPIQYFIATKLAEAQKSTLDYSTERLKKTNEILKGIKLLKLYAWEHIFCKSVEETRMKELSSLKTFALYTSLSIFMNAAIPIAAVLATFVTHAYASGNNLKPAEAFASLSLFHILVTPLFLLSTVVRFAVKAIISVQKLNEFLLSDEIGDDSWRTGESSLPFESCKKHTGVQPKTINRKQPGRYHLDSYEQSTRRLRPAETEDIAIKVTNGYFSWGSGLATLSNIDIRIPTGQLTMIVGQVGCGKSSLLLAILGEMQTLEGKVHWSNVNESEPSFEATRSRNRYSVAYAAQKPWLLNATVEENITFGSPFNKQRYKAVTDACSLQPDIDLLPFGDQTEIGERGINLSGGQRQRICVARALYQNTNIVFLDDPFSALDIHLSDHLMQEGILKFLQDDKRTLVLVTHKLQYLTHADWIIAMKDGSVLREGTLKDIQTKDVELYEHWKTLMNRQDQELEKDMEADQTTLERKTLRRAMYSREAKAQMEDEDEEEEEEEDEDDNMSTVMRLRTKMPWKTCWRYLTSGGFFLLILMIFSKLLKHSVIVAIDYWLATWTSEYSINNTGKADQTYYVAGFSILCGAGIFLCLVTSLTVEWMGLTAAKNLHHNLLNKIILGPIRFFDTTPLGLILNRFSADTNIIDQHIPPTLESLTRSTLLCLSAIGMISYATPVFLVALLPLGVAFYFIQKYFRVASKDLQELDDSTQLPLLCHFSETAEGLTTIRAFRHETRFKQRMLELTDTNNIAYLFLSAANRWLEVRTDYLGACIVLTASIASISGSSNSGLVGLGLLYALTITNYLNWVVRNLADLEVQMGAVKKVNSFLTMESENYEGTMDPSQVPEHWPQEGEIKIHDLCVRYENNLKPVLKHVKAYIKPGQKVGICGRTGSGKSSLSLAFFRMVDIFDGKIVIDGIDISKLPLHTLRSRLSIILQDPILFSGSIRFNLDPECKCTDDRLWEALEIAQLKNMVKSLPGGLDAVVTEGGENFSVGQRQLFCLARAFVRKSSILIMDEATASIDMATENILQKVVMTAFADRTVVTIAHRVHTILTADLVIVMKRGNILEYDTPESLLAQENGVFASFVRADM
As to the kind of experiment: Potassium Channel Assay (FLIPR membrane potential dye, TE671 cells). Conditions: TE671 human medulloblastoma cells, room temperature, fluorescence change monitored for 3 minutes. It counts as cell-based. The protocol:
TE671 human medulloblastoma cells were obtained from ATCC and grown in Dulbecco's modified Eagle's medium (DMEM) supplemented with 10% fetal bovine serum, 100 U/ml penicillin and 100 U/ml streptomycine.
The day before testing, the cells were plated in black 96-well plates at 50K/well. On the day of testing, the growth media was removed, then 100 μl of FLIPR buffer (20 mM HEPES, 120 mM NaCl, 2 mM KCl, 2 mM CaCl2, 1 mM MgCl2, 5 mM Glucose) and 100 μl of Membrane Potential Assay Dye (Molecular Devices) dissolved in FLIPR buffer were added to each well. The cells were incubated at room temperature for 15 to 30 min.
The effect of test compounds on KATP channels were evaluated on a fluorometric imaging plate reader (FLIPR, Molecular Devices) at room temperature. After a baseline period, 50 μl of 5× stock solution of test compound prepared in FLIPR buffer was added and fluorescence change was monitored for 3 minutes. After this reading, glyburide, a KATP channel blocker, was added to a final concentration of 5 μM to check the specificity of the test compound as a KATP channel opener. Hyperpolarization resulting from KATP channel opening was observed as a decrease in fluorescence intensity.
Representative compounds of the present invention were tested according to the procedure described above, with results as listed in Table 7 below.
One may read the EC50 as the concentration giving half of the maximal effect. Low readings indicate a more potent agent, high ones a less potent agent. In the case of `CCOC(=O)c1cnc2cc(C(F)(F)F)ccc2c1-c1cccc(C#N)c1` [Compound 1, 4-(3-Cyano-phenyl)-7-trifluoromethyl-quinoline-3-carboxylic acid ethyl ester], the “% Stimulation” value is listed as 36% and the EC50 was greater than 30 µM.

For `CCOC(=O)c1cnc2cc(C(F)(F)F)ccc2c1-c1cc(C)cc(OC)c1` [Compound 2, 4-(3-Methoxy-5-methyl-phenyl)-7-trifluoromethyl-quinoline-3-carboxylic acid ethyl ester], the “% Stimulation” value is given as 23% and the EC50 was greater than 30 µM.

Take `CCOC(=O)c1cnc2cc(C(F)(F)F)ccc2c1-c1cc(C(F)(F)F)cc(C(F)(F)F)c1` [Compound 3, 4-(3,5-Bis-trifluoromethyl-phenyl)-7-trifluoromethyl-quinoline-3-carboxylic acid ethyl ester]: the “% Stimulation” value is listed as 19% and the EC50 is greater than 30 µM.

Regarding `CCOC(=O)c1ccc(-c2c(C(=O)OCC)cnc3cc(C(F)(F)F)ccc23)cc1` [Compound 4, 4-(4-Ethoxycarbonyl-phenyl)-7-trifluoromethyl-quinoline-3-carboxylic acid ethyl ester], the “% Stimulation” value was 38% and the EC50 is greater than 30 µM.

As to `CCOC(=O)c1cnc2cc(C(F)(F)F)ccc2c1-c1ccc(-c2ccccc2)cc1` [Compound 5, 4-Biphenyl-4-yl-7-trifluoromethyl-quinoline-3-carboxylic acid ethyl ester], the “% Stimulation” value is 33% and the EC50 is greater than 30 µM.

`CCOC(=O)c1cnc2cc(C(F)(F)F)ccc2c1-c1ccccc1` [Compound 6, 4-Phenyl-7-trifluoromethyl-quinoline-3-carboxylic acid ethyl ester]: the “% Stimulation” value was 42% and the EC50 was greater than 30 µM.

On to `CCOC(=O)c1cnc2cc(C(F)(F)F)ccc2c1-c1cccc(C(C)=O)c1` [Compound 7, 4-(3-Acetyl-phenyl)-7-trifluoromethyl-quinoline-3-carboxylic acid ethyl ester], for which the “% Stimulation” value was 2% and the EC50 is greater than 30 µM.

As to `CCOC(=O)c1cnc2cc(C(F)(F)F)ccc2c1-c1cc(C(F)(F)F)ccc1F` [Compound 8, 4-(2-Fluoro-5-trifluoromethyl-phenyl)-7-trifluoromethyl-quinoline-3-carboxylic acid ethyl ester], the “% Stimulation” value is reported as 31% and the EC50 is greater than 30 µM.

In the case of `CCOC(=O)c1cnc2cc(C(F)(F)F)ccc2c1-c1cc(C=O)ccc1OC` [Compound 9, 4-(5-Formyl-2-methoxy-phenyl)-7-trifluoromethyl-quinoline-3-carboxylic acid ethyl ester], the EC50 was 7.73 µM.

Turning to `CCOC(=O)c1cnc2cc(C(F)(F)F)ccc2c1-c1cccc(C(F)(F)F)c1` [Compound 10, 7-Trifluoromethyl-4-(3-trifluoromethyl-phenyl)-quinoline-3-carboxylic acid ethyl ester], the “% Stimulation” value amounted to 22% and the EC50 was greater than 30 µM.

Consider `CCOC(=O)c1cnc2cc(C(F)(F)F)ccc2c1-c1cccc(C=O)c1` [Compound 11, 4-(3-Formyl-phenyl)-7-trifluoromethyl-quinoline-3-carboxylic acid ethyl ester], for which the “% Stimulation” value stood at 2% and the EC50 is greater than 30 µM.

As for `CCOC(=O)c1cnc2cc(C(F)(F)F)ccc2c1-c1cccc(CO)c1` [Compound 12, 4-(3-Hydroxymethyl-phenyl)-7-trifluoromethyl-quinoline-3-carboxylic acid ethyl ester], the “% Stimulation” value stood at 20% and the EC50 is greater than 30 µM.

As for `CCOC(=O)c1cnc2cc(C(F)(F)F)ccc2c1-c1ccc(C)c(C)c1` [Compound 13, 4-(3,4-Dimethyl-phenyl)-7-trifluoromethyl-quinoline-3-carboxylic acid ethyl ester], the “% Stimulation” value was found to be 0% and the EC50 was greater than 30 µM.

In the case of `CCOC(=O)c1cnc2cc(C(F)(F)F)ccc2c1-c1cc(CO)ccc1OC` [Compound 14, 4-(5-Hydroxymethyl-2-methoxy-phenyl)-7-trifluoromethyl-quinoline-3-carboxylic acid ethyl ester], the midpoint of the response, the EC50, lay at 4.56 µM.

As to `CCOC(=O)c1cnc2cc(C(F)(F)F)ccc2c1OS(=O)(=O)C(F)(F)F` [Compound 15, 4-Trifluoromethanesulfonyloxy-7-trifluoromethyl-quinoline-3-carboxylic acid ethyl ester], the EC50 came out at 6.27 µM.

For the molecule `N#Cc1cccc(-c2ccncc2C(O)c2ccccc2)c1` (stereo not shown) [Compound 19, 3-[3-(Hydroxy-phenyl-methyl)-pyridin-4-yl]-benzonitrile], the midpoint of the response, the EC50, lay at 9.63 µM.

For the molecule `N#Cc1cccc(-c2ccncc2C(O)c2ccc(F)cc2)c1` (stereo not shown) [Compound 20, 3-{3-[(4-Fluoro-phenyl)-hydroxy-methyl]-pyridin-4-yl}-benzonitrile], the midpoint of the response, the EC50, lay at 19.4 µM.

As to `N#Cc1cccc(-c2ccncc2C(O)c2cccc(F)c2)c1` (stereo not shown) [Compound 21, 3-{3-[(3-Fluoro-phenyl)-hydroxy-methyl]-pyridin-4-yl}-benzonitrile], the EC50 amounted to 23.2 µM.

For `Cc1ccc(C(O)c2cnccc2-c2cccc(C#N)c2)cc1F` (stereo not shown) [Compound 22, 3-{3-[(3-Fluoro-4-methyl-phenyl)-hydroxy-methyl]-pyridin-4-yl}-benzonitrile], a half-maximal effect (EC50) was put at 15.1 µM.

With `N#Cc1cccc(-c2ccncc2C(O)c2ccc(F)c(F)c2)c1` (stereo not shown) [Compound 23, 3-{3-[(3,4-Difluoro-Phenyl)-hydroxy-methyl]-pyridin-4-yl}-benzonitrile], the EC50 came to 11.4 µM.

`N#Cc1cccc(-c2ccncc2C(O)c2ccc(Cl)c(Cl)c2)c1` (stereo not shown) [Compound 24, 3-{3-[(3,4-Dichloro-phenyl)-hydroxy-methyl]-pyridin-4-yl}-benzonitrile] had an EC50 of 14.5 µM.

In the case of `N#Cc1cccc(-c2ccncc2C(O)c2cc(Cl)cc(Cl)c2)c1` (stereo not shown) [Compound 25, 3-{3-[(3,5-Dichloro-phenyl)-hydroxy-methyl]-pyridin-4-yl}benzonitrile], a half-maximal effect (EC50) was put at 9.82 µM.

In turn, `N#Cc1cccc(-c2ccncc2C(O)c2ccc(Cl)cc2)c1` (stereo not shown) [Compound 26, 3-{3-[(4-Chloro-phenyl)-hydroxy-methyl]-pyridin-4-yl}-benzonitrile] came in with an EC50 of 10.2 µM.

For the molecule `CC(C)(C)c1ccc(C(O)c2cnccc2-c2cccc(C#N)c2)cc1` (stereo not shown) [Compound 27, 3-{3-[(4-tert-Butyl-phenyl)-hydroxy-methyl]-pyridin-4-yl}-benzonitrile], the EC50 was 10.7 µM.

`COc1ccccc1C(O)c1cnccc1-c1cccc(C#N)c1` (stereo not shown) [Compound 28, 3-{3-[Hydroxy-(2-methoxy-phenyl)-methyl]-pyridin-4-yl}-benzonitrile]: the EC50 was 10.2 µM.

In turn, `COc1cccc(C(O)c2cnccc2-c2cccc(C#N)c2)c1` (stereo not shown) [Compound 29, 3-{3-[Hydroxy-(3-methoxy-phenyl)-methyl]-pyridin-4-yl}-benzonitrile] came in with an EC50 of 13.7 µM.

For the molecule `COc1ccc(C(O)c2cnccc2-c2cccc(C#N)c2)cc1` (stereo not shown) [Compound 30, 3-{3-[Hydroxy-(4-methoxy-phenyl)-methyl]-pyridin-4-yl}-benzonitrile], the “% Stimulation” value stood at 7% and the EC50 is greater than 30 µM.

The molecule `Cc1ccccc1C(O)c1cnccc1-c1cccc(C#N)c1` (stereo not shown) [Compound 31, 3-{3-[Hydroxy-(2-methyl-phenyl)-methyl]-pyridin-4-yl}-benzonitrile] registered an EC50 of 15 µM. This counts as double-digit micromolar.

With `Cc1ccc(C(O)c2cnccc2-c2cccc(C#N)c2)cc1` (stereo not shown) [Compound 32, 3-{3-[Hydroxy-(4-methyl-phenyl)-methyl]-pyridin-4-yl}-benzonitrile], the EC50 was determined as 8.48 µM.

On to `CSc1ccc(C(O)c2cnccc2-c2cccc(C#N)c2)cc1` (stereo not shown) [Compound 34, 3-{3-[Hydroxy-(4-methylsulfanyl-phenyl)-methyl]-pyridin-4-yl}-benzonitrile], for which the EC50 turned out to be 20.8 µM.

On to `Cc1cc(C)c(C(O)c2cnccc2-c2cccc(C#N)c2)c(C)c1` (stereo not shown) [Compound 35, 3-{3-[Hydroxy-(2,4,6-trimethyl-phenyl)-methyl]-pyridin-4-yl}-benzonitrile], for which the “% Stimulation” value amounted to 37% and the EC50 is greater than 30 µM.

Consider `COc1ccc(F)cc1C(O)c1cnccc1-c1cccc(C#N)c1` (stereo not shown) [Compound 36, 3-{3-[(5-Fluoro-2-methoxy-phenyl)-hydroxy-methyl]-pyridin-4-yl}-benzonitrile], for which the “% Stimulation” value stood at 24% and the EC50 is greater than 30 µM.

In the case of `COc1ccc(C(O)c2cnccc2-c2cccc(C#N)c2)cc1F` (stereo not shown) [Compound 37, 3-{3-[(3-Fluoro-4-methoxy-phenyl)-hydroxy-methyl]-pyridin-4-yl}-benzonitrile], the midpoint of the response, the EC50, lay at 9.59 µM. This counts as single-digit micromolar.

Take `Cc1ccc(F)cc1C(O)c1cnccc1-c1cccc(C#N)c1` (stereo not shown) [Compound 38, 3-{3-[(5-Fluoro-2-methyl-phenyl)-hydroxy-methyl]-pyridin-4-yl}-benzonitrile]: the “% Stimulation” value was 63% and the EC50 is greater than 30 µM.

`N#Cc1cccc(-c2ccncc2C(O)C(F)(F)F)c1` (stereo not shown) [Compound 39, 3-[3-(2,2,2-Trifluoro-1-hydroxy-ethyl)-pyridin-4-yl]-benzonitrile]: the EC50 turned out to be 10.5 µM. That is a double-digit micromolar value.

`O=C(c1ccccc1)c1ccncc1C(O)c1ccccc1` (stereo not shown) [Compound 43, [3-(Hydroxy-phenyl-methyl)-pyridin-4-yl]-phenyl-methanone] came in with an EC50 of 17.4 µM.
